Results on 16 compounds are retold here after patent publication US9586942B2, “Aminotetraline and aminoindane derivatives, pharmaceutical compositions containing them, and their use in therapy” (AbbVie Deutschland GmbH & Co. KG, priority 2013, dated 2017).

Series [1] in a line: Metabolic stability in human liver microsomes. The note with it: human liver microsomes 0.25 mg protein/ml, 0.5 μM test substance, NADPH, 37° C., pH 7.4; scaled microsomal clearance; examples marked * tested as fumarate salts. The series is classed as in vitro ADME. The method, then:
Metabolic stability was determined as follows:
0.5 μM test substance was preincubated together with human liver microsomes (0.25 mg of microsomal protein/ml) in 0.05 M potassium phosphate buffer of pH 7.4 in microtiter plates at 37° C. for 5 min. The reaction was started by adding NADPH (1.0 mM). After 0, 5, 10, 15, 20 and 30 min the reaction was stopped and cooled with twice the amount of quench solution consisting of acetonitrile/methanol 1:1, and containing 0.2 μM carbutamide. The samples were frozen until analyzed. The remaining concentration of undegraded test substance was determined by LC MSMS. The half-life (T1/2) was determined from the gradient of the signal of test substance/unit time plot, allowing to calculate the half-life of the test substance, assuming first order kinetics, from the decrease in the concentration of the compound with time. The microsomal clearance (mClint) was calculated as follows: mClint=((ln(2)/t 1/2)/Microsomal Protein Concentration (mg/ml))*1000, leading to the unit of uLmin/mg. The scaled clearance (mClin_scaled) was calculated as mCLint_scaled=m CLint*(Microsomal Yield (mg/kg BW))/1000000*60, leading to the units L/hr/kg. The Microsomal Yield is defined by the specifics of the used microsomes. Calculations were modified from references: Di, The Society for Biomolecular Screening, 2003, 453-462; Obach, DMD, 1999 vol 27. N 11, 1350-1359.

Another series concerns the target human GlyT1c transporter (Homo sapiens (Human), UniProt P48067). The series is described as follows: Radioligand binding assay using recombinant CHO cell membranes expressing human GlyT1. As to conditions: examples marked * tested as fumarate salts, read-out: radioligand binding Kiapp. The protocol:
2. Radioligand binding assays using recombinant CHO cell membranes expressing human GlyT1:
Radioligand binding to human GlyT1c transporter-expressing membranes was determined as described in Mezler et al., Molecular Pharmacology 74:1705-1715, 2008.

Sequence of human GlyT1c transporter (P48067 whole entry): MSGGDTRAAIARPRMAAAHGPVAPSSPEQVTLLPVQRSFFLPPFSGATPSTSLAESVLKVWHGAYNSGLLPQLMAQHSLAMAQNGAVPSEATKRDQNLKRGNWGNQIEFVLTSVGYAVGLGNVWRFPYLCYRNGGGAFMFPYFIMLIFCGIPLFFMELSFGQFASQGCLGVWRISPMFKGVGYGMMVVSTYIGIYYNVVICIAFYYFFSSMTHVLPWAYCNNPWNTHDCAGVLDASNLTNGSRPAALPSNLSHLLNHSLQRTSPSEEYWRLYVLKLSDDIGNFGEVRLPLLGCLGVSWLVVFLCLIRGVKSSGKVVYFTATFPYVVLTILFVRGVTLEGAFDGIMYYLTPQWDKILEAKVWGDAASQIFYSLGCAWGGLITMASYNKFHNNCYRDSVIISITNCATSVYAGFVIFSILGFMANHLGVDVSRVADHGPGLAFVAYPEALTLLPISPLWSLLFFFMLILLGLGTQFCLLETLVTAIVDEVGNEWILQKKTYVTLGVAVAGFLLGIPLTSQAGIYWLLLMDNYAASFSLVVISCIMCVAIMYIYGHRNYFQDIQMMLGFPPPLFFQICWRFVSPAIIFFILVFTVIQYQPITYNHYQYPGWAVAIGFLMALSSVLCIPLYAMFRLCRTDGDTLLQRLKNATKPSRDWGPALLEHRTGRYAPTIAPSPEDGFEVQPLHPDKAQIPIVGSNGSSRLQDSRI

Take `Cn1cnc(S(=O)(=O)NC2CN(c3ccc4c(c3)[C@@H](Cc3ccccc3)[C@@H](N3CCC3)CC4)C2)c1` [Example 1, N-(1-((7S,8R)-7-(azetidin-1-yl)-8-benzyl-5,6,7,8-tetrahydronaphthalen-2-yl)azetidin-3-yl)-1-methyl-1H-imidazole-4-sulfonamide]: in series [1], the “human mCl” value is “≦5 L/h/Kg”. For the same compound, the Ki at human GlyT1c transporter is at most 10 nM.
The matching figures for `CS(=O)(=O)NC1CN(c2ccc3c(c2)[C@@H](Cc2ccccc2)[C@@H](N2CCC2)CC3)C1` [Example 3, N-(1-((7S,8R)-7-(azetidin-1-yl)-8-benzyl-5,6,7,8-tetrahydronaphthalen-2-yl)azetidin-3-yl)methanesulfonamide]: “≦5 L/h/Kg” and at most 1000 nM.
The matching figures for `CCS(=O)(=O)NC1CN(c2ccc3c(c2)[C@@H](Cc2ccccc2)[C@@H](N2CCC2)CC3)C1` [Example 4, N-(1-((7S,8R)-7-(azetidin-1-yl)-8-benzyl-5,6,7,8-tetrahydronaphthalen-2-yl)azetidin-3-yl)ethanesulfonamide]: “≦5 L/h/Kg” and at most 100 nM.
On to `CCCS(=O)(=O)NC1CN(c2ccc3c(c2)[C@@H](Cc2ccccc2)[C@@H](N2CCC2)CC3)C1` [Example 5, N-(1-((7S,8R)-7-(azetidin-1-yl)-8-benzyl-5,6,7,8-tetrahydronaphthalen-2-yl)azetidin-3-yl)propane-1-sulfonamide], for which the “human mCl” value in series [1] is reported as “≦5 L/h/Kg”. Also, the Ki on human GlyT1c transporter is at most 10 nM.
The matching figures for `O=S(=O)(NC1CN(c2ccc3c(c2)[C@@H](Cc2ccccc2)[C@@H](N2CCC2)CC3)C1)c1ccc2c(c1)OC(F)(F)O2` [Example 6, N-(1-((7S,8R)-7-(azetidin-1-yl)-8-benzyl-5,6,7,8-tetrahydronaphthalen-2-yl)azetidin-3-yl)-2,2-difluorobenzo[d][1,3]dioxole-5-sulfonamide]: “≦500 L/h/Kg” and at most 10000 nM.
On the same counts, the results for `Cn1cnc(S(=O)(=O)NC2(C)CN(c3ccc4c(c3)[C@@H](Cc3ccccc3)[C@@H](N3CCC3)CC4)C2)c1` [Example 7, N-(1-((7S,8R)-7-(azetidin-1-yl)-8-benzyl-5,6,7,8-tetrahydronaphthalen-2-yl)-3-methylazetidin-3-yl)-1-methyl-1H-imidazole-4-sulfonamide] are “≦5 L/h/Kg” and at most 100 nM.
The matching figures for `CCS(=O)(=O)NC1(C)CN(c2ccc3c(c2)[C@@H](Cc2ccccc2)[C@@H](N2CCC2)CC3)C1` [Example 8, N-(1-((7S,8R)-7-(azetidin-1-yl)-8-benzyl-5,6,7,8-tetrahydronaphthalen-2-yl)-3-methylazetidin-3-yl)ethanesulfonamide]: “≦5 L/h/Kg” and at most 10000 nM.
Consider `Cn1cnc(S(=O)(=O)N[C@@H]2CCN(c3ccc4c(c3)[C@@H](Cc3ccccc3)[C@@H](N3CCC3)CC4)C2)c1` [Example 9, N-((R)-1-((7S,8R)-7-(azetidin-1-yl)-8-benzyl-5,6,7,8-tetrahydronaphthalen-2-yl)pyrrolidin-3-yl)-1-methyl-1H-imidazole-4-sulfonamide], for which, in series [1], the “human mCl” value is reported as “≦5 L/h/Kg”. Further, the Ki on human GlyT1c transporter was at most 100 nM.
The matching figures for `Cn1cnc(S(=O)(=O)N[C@H]2CCN(c3ccc4c(c3)[C@@H](Cc3ccccc3)[C@@H](N3CCC3)CC4)C2)c1` [Example 10, N-((S)-1-((7S,8R)-7-(azetidin-1-yl)-8-benzyl-5,6,7,8-tetrahydronaphthalen-2-yl)pyrrolidin-3-yl)-1-methyl-1H-imidazole-4-sulfonamide]: “≦5 L/h/Kg” and at most 1000 nM.
On the same counts, the results for `Cn1cnc(S(=O)(=O)NC2CCN(c3ccc4c(c3)[C@@H](Cc3ccccc3)[C@@H](N3CCC3)CC4)CC2)c1` [Example 11, N-(1-((7S,8R)-7-(azetidin-1-yl)-8-benzyl-5,6,7,8-tetrahydronaphthalen-2-yl)piperidin-4-yl)-1-methyl-1H-imidazole-4-sulfonamide] are “≦5 L/h/Kg” and at most 100 nM.
The matching figures for `Cn1cnc(S(=O)(=O)N[C@H]2C[C@H](c3ccc4c(c3)[C@@H](Cc3ccccc3)[C@@H](N3CCC3)CC4)C2)c1` [Example 12, N-((1R,3r)-3-((7S,8R)-7-(azetidin-1-yl)-8-benzyl-5,6,7,8-tetrahydronaphthalen-2-yl)cyclobutyl)-1-methyl-1H-imidazole-4-sulfonamide]: “≦5 L/h/Kg” and at most 10 nM.
With `Cn1cnc(S(=O)(=O)N[C@H]2C[C@@H](c3ccc4c(c3)[C@@H](Cc3ccccc3)[C@@H](N3CCC3)CC4)C2)c1` [Example 13, N-((1 S,3s)-3-((7S,8R)-7-(azetidin-1-yl)-8-benzyl-5,6,7,8-tetrahydronaphthalen-2-yl)cyclobutyl)-1-methyl-1H-imidazole-4-sulfonamide], the “human mCl” value in series [1] is reported as “≦5 L/h/Kg”. For the same compound, the Ki at human GlyT1c transporter is at most 100 nM.
On the same counts, the results for `CCCS(=O)(=O)N[C@H]1CCN(c2ccc3c(c2)[C@@H](Cc2ccccc2)[C@@H](N2CCC2)CC3)C1=O` [Example 14, N-((S)-1-((7S,8R)-7-(azetidin-1-yl)-8-benzyl-5,6,7,8-tetrahydronaphthalen-2-yl)-2-oxopyrrolidin-3-yl)propane-1-sulfonamide] are “≦5 L/h/Kg” and at most 100 nM.
On the same counts, the results for `Cn1cnc(S(=O)(=O)NC2CN(c3ccc4c(c3)[C@@H](Cc3ccccc3)[C@@H](N3CC5CC5C3)CC4)C2)c1` (stereo partly drawn) [Example 15, N-(1-((7S,8R)-8-benzyl-7-(3-azabicyclo[3.1.0]hexan-3-yl)-5,6,7,8-tetrahydronaphthalen-2-yl)azetidin-3-yl)-1-methyl-1H-imidazole-4-sulfonamide] are “≦5 L/h/Kg” and at most 100 nM.
On the same counts, the results for `Cn1cc(S(=O)(=O)NC2CN(c3ccc4c(c3)[C@@H](Cc3ccccc3)[C@@H](N3CC5CC5C3)CC4)C2)nn1` (stereo partly drawn) [Example 16, N-(1-((7S,8R)-8-benzyl-7-(3-azabicyclo[3.1.0]hexan-3-yl)-5,6,7,8-tetrahydronaphthalen-2-yl)azetidin-3-yl)-1-methyl-1H-1,2,3-triazole-4-sulfonamide] are “≦5 L/h/Kg” and at most 10 nM.
In the case of `CCCS(=O)(=O)NC1CN(c2ccc3c(c2)[C@@H](Cc2ccccc2)[C@@H](N2CC4CC4C2)CC3)C1` (stereo partly drawn) [Example 17, N-(1-((7S,8R)-8-benzyl-7-(3-azabicyclo[3.1.0]hexan-3-yl)-5,6,7,8-tetrahydronaphthalen-2-yl)azetidin-3-yl)propane-1-sulfonamide], the “human mCl” value in series [1] is “≦5 L/h/Kg”. Moreover, the Ki on human GlyT1c transporter is at most 10 nM.
